Measurements taken from patent US20240336591A1, “ORGANIC PYRIDINE-PYRAZOLE COMPOUNDS AND THEIR USES” (priority 2021, published 2024).
“Also recorded” adds a separate entry of the source.

Columns and labels:
[1] = Determination of CNS penetration in vivo (brain to plasma partitioning, Kpuu); parameters: species or system Male Sprague Dawley Rats; details: male, Sprague-Dawley, brain / plasma (unbound); rat, IV, 1 mg/kg, 10-30 min post dose
[2] = molecular target: T1, Human PDE10A2 (Homo sapiens (Human), UniProt Q9Y233); experiment: Cell based human PDE10A activity assay - cAMP HTRF assay in HEK 293 rhPDE10A2 cell line
T1 sequence (Q9Y233 267-1055): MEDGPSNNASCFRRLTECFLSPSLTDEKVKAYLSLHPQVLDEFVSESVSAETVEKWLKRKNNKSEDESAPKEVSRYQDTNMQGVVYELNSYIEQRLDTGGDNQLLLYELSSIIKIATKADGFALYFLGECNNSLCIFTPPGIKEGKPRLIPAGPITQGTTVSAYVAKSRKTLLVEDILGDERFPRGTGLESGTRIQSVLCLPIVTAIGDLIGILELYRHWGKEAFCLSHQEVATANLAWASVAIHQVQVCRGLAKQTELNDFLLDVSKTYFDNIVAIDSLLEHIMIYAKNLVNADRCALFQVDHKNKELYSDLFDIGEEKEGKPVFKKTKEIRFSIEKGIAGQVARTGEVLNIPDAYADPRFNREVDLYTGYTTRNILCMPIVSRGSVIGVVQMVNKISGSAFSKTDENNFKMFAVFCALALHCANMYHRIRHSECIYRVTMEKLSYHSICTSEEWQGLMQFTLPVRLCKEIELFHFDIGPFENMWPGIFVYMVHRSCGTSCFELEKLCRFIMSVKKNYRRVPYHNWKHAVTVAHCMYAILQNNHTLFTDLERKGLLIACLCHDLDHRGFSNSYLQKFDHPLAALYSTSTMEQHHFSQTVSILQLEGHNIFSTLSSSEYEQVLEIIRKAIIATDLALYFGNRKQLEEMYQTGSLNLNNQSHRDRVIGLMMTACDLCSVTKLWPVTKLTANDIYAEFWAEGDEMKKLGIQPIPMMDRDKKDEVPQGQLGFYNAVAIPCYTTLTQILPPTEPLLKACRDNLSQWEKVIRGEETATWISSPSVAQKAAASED
Description: Semi log compound dilutions starting at a final concentration of 10 μM were dispensed into a white 384 well plate, alongside DMSO and an Inhibited control using the Tecan D300e digital dispenser. HEK 293 cells overexpressing recombinant human PDE10A2 were seeded on top of the compounds at 2500 cells/well in a volume 5 μL/well. The plate was incubated at room temperature for 60 minutes. To induce endogenous cAMP, 5 μL/well of Forskolin at a final assay concentration of 10 μM was added to the plate. The plate was incubated at room temperature for a further 45 minutes. cAMP HTRF detection reagents were added, and the plate was incubated for 60 minutes at room temperature. […] Data was analysed using a 4-parameter fit.

[3] = system: inflamed colonic mucosa from ulcerative colitis patients; experiment: Ex-vivo colon biopsy culture from ulcerative colitis patients, cytokine release (Protocol 1); assay type: cell-based, human
Description: The effect of selective PDE10A inhibition was tested on inflamed colonic mucosa from ulcerative colitis patients taken during routine endoscopy (Protocol 1 detailed below). These samples retain a disease phenotype in ex-vivo culture, secrete high basal levels of inflammatory cytokines, and represent a highly relevant and translational disease model. The effect of the PDE10A inhibitors on levels of the inflammatory cytokines IL-6 and IL-8 released from these tissue samples were measured. Both IL-6 and IL-8 are key regulators in ulcerative colitis pathology and their levels correlate with disease severity (Waldner M J et al. Master regulator of intestinal disease: IL-6 in chronic inflammation and cancer development. Semin Immunol. 26(1), 75-9 (2014); Bernardo D et al. IL-6 promotes immune responses in human ulcerative colitis and induces a skin-homing phenotype in the dendritic cells and T-cells they stimulate. Eur J Immunol. 42(5), 1337-53 (2012); Pearl D S, Cytokine mucosal expression in ulcerative colitis, the relationship between cytokine release and disease activity. J Crohns Colitis. 7(6), 481-9 (2013)).
These colon biopsies retain an inflammatory phenotype and secrete high levels of inflammatory cytokines in ex-vivo culture.
(§1) Biopsy tissue was obtained from inflamed colonic mucosa from ulcerative colitis or Crohn's disease patients during routine endoscopy. Ex-vivo biopsy cultures for the analysis of inflammatory cytokine biomarkers were run as previously described (Vossenkämper A. et al. A CD3- specific antibody reduces cytokine production and alters phosphoprotein profiles in intestinal tissues from patients with inflammatory bowel disease. Gastroenterology, 147, 172-183 (2014)). Biopsies were incubated in organ culture for 24 h with the addition of positive control compounds, or specific PDE10A inhibitors. Supernatants collected at the end of the experiment were snap-frozen and stored at −70° C. For the measurement of cytokines, the frozen culture supernatants were thawed and analysed for levels of the inflammatory cytokines using Luminex cytokine assay kits (R&D Systems) and an R&D Systems MAGPIX® analyser. Mean values ±SDs were calculated for the levels of spontaneous cytokine production measured in biopsy culture supernatants from each treatment group.

[4] = molecular target: T1, Human PDE10A2; experiment: Biochemical human PDE10A activity assay - PDE10A2 Phosphate Sensor Assay; details: cGMP 3 μM substrate, PDE10A2 0.25 nM
Description: Biochemical Human PDE10A Activity Assay—PDE10A2 Phosphate Sensor Assay
Semi Log compound dilutions starting at a final concentration of 50 μM were dispensed into a black 384 well plate alongside, DMSO and an Inhibited control using the Echo Acoustic dispenser. […] Data was analysed using a 4-parameter fit.

[5] = system: inflamed colonic mucosa from Crohn's Disease patients; experiment: Ex-vivo colon biopsy culture from Crohn's disease patients, cytokine release (Protocol 1); assay type: cell-based, human; details: 0.1 uM; 2 independent CD patient biopsies; vs DMSO vehicle; listed as PF-2545920
Description: In addition, we tested the effect of selective PDE10A inhibition using 0.1 uM PF-2545920 on inflamed colonic mucosa from Crohn's Disease patients taken during routine endoscopy (Protocol 1).
as §1

[6] = system: isolated human neutrophil; experiment: In vitro assay of IL-8 neutrophil activation; assay type: cell-based
[7] = system: other PDE family members; details: read-out: IC50s for other PDE family members; literature value; cited from earlier work
[8] = system: inflamed colonic mucosa from pharmacotherapy treatment-refractory ulcerative colitis patients; experiment: Ex-vivo culture of inflamed colon tissue from surgical resection of treatment-refractory UC patients, TNFα release (Protocol 2); assay type: cell-based, human; details: 1 μM; UC donors 4 and 5; with SEB; about 18 hours; vs DMSO vehicle
[9] = 100 nM, UC donor 3, vs vehicle control
[10] = UC donors 1 and 2, PF-02545920 0.1 μM and 1 μM, TAK-063 1 uM, 24 h, vs DMSO vehicle

Structure (SMILES) | Kp uu [1] | IC50 [2] [µM] | secreted levels of IL-6 [3, 9] | secreted levels of IL-8 [3, 9] | PDE10A2 Phosphate Sensor Enzyme Assay (pIC50) [4] | secreted levels of IL-6 [5] | secreted levels of IL-8 [5] | secreted levels of IL-6 [3, 10] | secreted levels of IL-8 [3, 10] | IL-8 induced neutrophil activation [6] | IC50 [7] [µM] | secreted levels of TNFα [8]
Cn1cc(-c2ccncc2)c(-c2ccc(OCc3nc4ccccn4c3C(=O)N=S(C)(C)=O)cc2)n1 [Example 20, N-[Dimethyl(oxo)-λ6-sulfanylidene]-2-[[4-[1-methyl-4-(4-pyridyl)pyrazol-3-yl]phenoxy]methyl]imidazo[1,2-a]pyridine-3-carboxamide] | 0.11 | 0.00676 | significantly reduce | significantly reduce | 9.76 |  |  |  |  |  |  | 
Cn1cc(-c2ccncc2)c(-c2ccc(OCc3ccc4ccccc4n3)cc2)n1 [PF-02545920] |  |  |  |  |  | inhibits; also recorded: significantly reduced | inhibits; also recorded: significantly reduced | inhibiting; also recorded: significantly reduced | inhibiting; also recorded: significantly reduced | dose dependently inhibited | > 1 | inhibiting; also recorded: significantly reduced
COc1cn(-c2ccc(-n3cccn3)cc2F)nc(-c2ccnn2-c2ccccc2)c1=O [TAK-063, 1-[2-fluoro-4-(1H-pyrazol-1-yl)phenyl]-5-methoxy-3-(1-phenyl-1H-pyrazol-5-yl)pyridazin-4(1H)-one, reference compound] |  |  |  |  |  |  |  | inhibiting; also recorded: significantly reduced | inhibiting; also recorded: significantly reduced |  | > 5 | 
